In PubChem BioAssay (NCI):
Converted amounts (≈) assume the structure as drawn.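 Step 1: Grow cells in 96-well plates. Step 2: Expose to compound for 48 hours at 5 concentrations. Step 3: Interpolate endpoints linearly; if unreached, use highest concentration. GI50 is the concentration that inhibits growth by half. The concentration for full growth arrest is given as TGI.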

Tests used:
Assay in all cases: DTP human tumour cell line panel, 48 h
[1] = tested on: COLO 205 colon
[2] = tested on: SK-MEL-2 melanoma
[3] = tested on: NCI-H522 lung
[4] = tested on: ACHN renal
[5] = tested on: SF-268 CNS
[6] = tested on: HCT-15 colon
[7] = tested on: NCI-H226 lung
[8] = tested on: NCI-H23 lung
[9] = tested on: NCI/ADR-RES ovarian
[10] = tested on: DU-145 prostate
[11] = tested on: A498 renal
[12] = tested on: HS 578T breast

SMILES | TGI [1] | TGI [2] [µM] | TGI [3] [µM] | TGI [4] | TGI [5] | TGI [6] | TGI [7] [µM] | TGI [8] | TGI [9] | TGI [10] | TGI [11] [µM] | TGI [12] | GI50 [8] [µg/mL] | GI50 [1] [µg/mL] | GI50 [9] [µg/mL] | GI50 [10] [µg/mL] | GI50 [4] [µg/mL] | GI50 [5] [µg/mL] | GI50 [6] [µg/mL] | GI50 [12] [µg/mL]
O=C1CC2CC3OC3[C@H]3c4cc5c(cc4C(=O)N1C23)OCO5 (stereo not given in full) | > 100 µM | > 100 | > 100 | > 100 µM | > 100 µM | > 100 µM | > 100 | – | – | – | – | – | – | – | – | – | – | – | – | –
CC(=O)Nc1ccc(C(=O)NN2C(=O)C(Cl)/C2=C/c2ccco2)cc1 (stereo not given) | > 100 µM | > 100 | > 100 | > 100 µM | > 100 µM | – | > 100 | > 100 µM | – | – | – | – | – | – | – | – | – | – | – | –
COc1cc(C(C)O)c(S(=O)(=O)CC(C)O)nn1 (stereo not given) | > 100 µM | – | > 100 | > 100 µM | – | > 100 µM | > 100 | > 100 µM | > 100 µM | > 100 µM | > 100 | > 100 µM | – | – | – | – | – | – | – | –
Nc1[nH]nc(Nc2ccc(Cl)cc2)c1P(=O)(c1ccccc1)c1ccccc1 | > 100 µM | 43.1 | 48.5 | > 100 µM | 33.8 µM | 98.4 µM | 50.2 | > 100 µM | 52.3 µM | 86.5 µM | > 100 | 37.2 µM | – | – | – | – | – | – | – | –
CC(=O)c1c(C)nc(SSc2nc(C)c(C(C)=O)c(-c3ccc(Cl)cc3)c2C#N)c(C#N)c1-c1ccc(Cl)cc1 | > 150 µg/mL | – | – | > 150 µg/mL | > 150 µg/mL | > 150 µg/mL | – | > 150 µg/mL | > 150 µg/mL | > 150 µg/mL | – | 54.8 µg/mL | 67.4 (≈ 112 µM) | > 150 | 118 (≈ 196 µM) | 140 (≈ 232 µM) | 76.9 (≈ 127 µM) | 102 (≈ 169 µM) | > 150 | 22.9 (≈ 37.9 µM)
CC(=O)OCC1OC(n2cc(F)c(=O)[nH]c2=O)C(NC(=O)OCc2ccccc2)C(OC(C)=O)C1OC(C)=O (stereo not given) | – | > 100 | > 100 | – | > 100 µM | > 100 µM | > 100 | > 100 µM | > 100 µM | – | > 100 | – | – | – | – | – | – | – | – | –
